Assays:
Assay in all cases: relative viability (nuclei count vs DMSO), 5 days (fraction); higher = more cells survive
Bromopyruvate = compound: C(C(=O)C(=O)O)Br [Bromopyruvate]
How it was run: (§1)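 Cells of lung cancer lines were placed in 1536-well plates and kept overnight at 37 °C. Pinning then delivered five library-drug doses (not always all listed), spaced by √10, onto plates anchored with vehicle, and the cells were left 5 days without changing medium. One step fixed, permeabilised and stained them with Hoechst, and MetaXpress counted nuclei in 4× images. Viability, as a median over plates, is treated-well nuclei divided by vehicle-well nuclei, with acceptance only at control CV below 25% and at least one doubling.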

Bicalutamide = compound: CC(O)(CS(=O)(=O)c1ccc(F)cc1)C(=O)Nc1ccc(C#N)c(C(F)(F)F)c1 [Bicalutamide]
How it was run: as §1

[1] = compound: CC(O)(CS(=O)(=O)c1ccc(F)cc1)C(=O)Nc1ccc(C#N)c(C(F)(F)F)c1 [Bicalutamide] + CC(C)C[C@H](NC(=O)[C@H](Cc1ccccc1)NC(=O)c1cnccn1)B(O)O [Bortezomib] (partner 0.002 µM)
How it was run: (§2)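 Each reported value is a median over duplicate plates. It expresses relative viability: treated-well nuclei count divided by vehicle-well nuclei count. Lung cancer cell lines in 1536-well plates were dosed by pin tool a day after seeding, alone with one drug or with a fixed anchor-drug dose plus five library-drug doses (not always all listed) in √10 steps, and nuclei were counted after 5 days.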

[2] = compound: C(C(=O)C(=O)O)Br [Bromopyruvate] + Cc1nc(NC(=O)N2CCC[C@H]2C(N)=O)sc1-c1ccnc(C(C)(C)C(F)(F)F)c1 [Alpelisib] (partner 2 µM)
How it was run: as §2

Cell Line	relative viability (Bromopyruvate; 1 µM)	relative viability (Bromopyruvate; 3.162 µM)	relative viability (Bromopyruvate; 10 µM)	relative viability (Bromopyruvate; 31.62 µM)	relative viability (Bromopyruvate; 100 µM)	relative viability (Bicalutamide; 0.08 µM)	relative viability (Bicalutamide; 0.253 µM)	relative viability (Bicalutamide; 0.8 µM)	relative viability (Bicalutamide; 2.53 µM)	relative viability ([1]; first compound 0.08 µM)	relative viability ([1]; first compound 0.253 µM)	relative viability ([1]; first compound 0.8 µM)	relative viability ([1]; first compound 2.53 µM)	relative viability ([2]; first compound 1 µM)	relative viability ([2]; first compound 3.162 µM)	relative viability ([2]; first compound 10 µM)	relative viability ([2]; first compound 31.62 µM)	relative viability ([2]; first compound 100 µM)
Calu-6	0.934	0.995	1.12	0.994	0.809	1.09	0.989	1.07	0.987	1.08	0.857	1.05	0.922	1.09	1.02	1.05	0.952	0.615
EBC-1	0.912	0.94	1.14	0.935	0.987	0.977	1.02	1.1	0.976	0.584	0.537	0.592	0.477	0.888	0.82	0.802	0.79	0.747
A-427	1.05	1.09	1.16	0.967	1.1	0.996	1.02	1.17	0.869	1.04	1.12	1	0.93	1.12	1.07	1.09	1.05	1.02
NCI-H2405	1.06	0.968	0.984	0.873	1.05	1.07	0.968	1.18	0.926	1.02	1.01	1.05	0.986	0.773	0.779	0.89	0.583	0.737
NCI-H1355	1.01	1.03	1.08	0.959	0.953	1.03	0.918	1.09	0.946	1.21	1.07	1.43	1.1	0.833	0.961	0.774	0.872	0.903
RERF-LC-KJ	1.04	1.02	1.13	1.02	0.98	1.01	0.985	1.15	0.982	1.24	0.951	1.23	1.07	0.688	1.09	0.825	0.773	0.82
NCI-H23	1.01	1.19	0.979	0.909	0.931	1.02	0.9	1.08	0.812	0.964	1.03	1.49	0.786	0.607	0.669	0.68	0.46	0.43
HOP-62	1.06	0.981	0.936	1.03	1.03	1.12	0.988	1.06	1.03	0.683	0.527	0.725	0.92	0.696	1.06	–	0.426	0.698
HARA	1.01	1.1	0.997	0.983	1.05	1.02	0.802	1.01	0.953	1.15	1.02	1.14	1.22	0.792	0.868	1.04	0.802	0.858
PC-14	1.05	1.07	1.09	0.997	0.943	1.02	1.01	1.15	0.976	0.923	0.974	0.827	0.89	1.02	1.01	0.93	0.966	0.964
NCI-H1755	0.977	0.964	1.06	1.01	1.02	0.988	1.01	1.05	0.876	0.97	0.892	0.938	0.895	0.95	0.925	0.968	0.963	0.97
HCC-78	1.08	0.971	1.02	0.94	0.993	0.941	0.991	1.22	0.985	0.498	0.504	0.479	0.556	0.305	0.354	0.421	0.452	0.373
IA-LM	1.03	0.96	0.983	0.884	0.924	1.02	0.936	1.18	0.95	0.819	0.86	0.966	0.837	0.756	0.776	0.887	0.836	0.821
NCI-H441	0.949	1.18	1.17	0.914	0.679	1.13	0.803	1.45	0.976	0.566	–	0.531	0.398	0.835	1.01	0.714	0.658	0.547
NCI-H322M	0.93	0.956	0.865	0.94	1.04	0.969	0.941	1.05	1.06	1.13	1.32	1.4	1.35	0.804	0.73	0.843	0.779	0.798
NCI-H1993	0.833	1.01	1.1	0.945	0.951	0.896	0.811	0.987	0.996	–	0.897	1.31	1.12	0.691	0.705	0.668	0.642	0.644
COR-L23	1.02	0.913	1.19	1.03	0.723	1.03	1.01	1.18	0.877	1.09	0.862	1.13	0.926	0.771	0.849	0.9	0.665	0.405
NCI-H2126	1.03	0.995	1.05	0.958	1.03	0.967	0.949	1.01	0.95	1.12	1.09	1.08	1.06	0.796	0.755	0.768	0.751	0.744

Cell Line	relative viability (Bromopyruvate; 1 µM)	relative viability (Bromopyruvate; 3.162 µM)	relative viability (Bromopyruvate; 10 µM)	relative viability (Bromopyruvate; 31.62 µM)	relative viability (Bromopyruvate; 100 µM)	relative viability (Bicalutamide; 0.08 µM)	relative viability (Bicalutamide; 0.253 µM)	relative viability (Bicalutamide; 0.8 µM)	relative viability (Bicalutamide; 2.53 µM)	relative viability ([1]; first compound 0.08 µM)	relative viability ([1]; first compound 0.253 µM)	relative viability ([1]; first compound 0.8 µM)	relative viability ([1]; first compound 2.53 µM)	relative viability ([2]; first compound 1 µM)	relative viability ([2]; first compound 3.162 µM)	relative viability ([2]; first compound 10 µM)	relative viability ([2]; first compound 31.62 µM)	relative viability ([2]; first compound 100 µM)
LC-2-ad	1.01	0.985	1.03	0.924	0.964	1.09	0.935	1.08	0.986	1.07	1.05	0.997	1.01	0.925	0.919	0.839	0.938	0.893
NCI-H1915	1.02	0.984	1	1.01	0.997	1.01	0.922	1.14	0.964	0.962	0.944	1.11	0.909	1.03	1.05	1.04	1.12	1.08
NCI-H2085	1	1.04	1.03	1.07	1.02	1.01	0.955	1.01	0.94	1.14	0.944	1.08	0.996	0.968	0.785	0.894	0.975	0.851
COR-L 105	0.87	1.06	0.866	0.838	0.687	1.05	0.814	1.03	0.825	0.761	0.87	0.98	0.501	0.975	1.34	1.23	1.02	0.768
SK-LU-1	1.07	0.93	1.2	0.935	0.943	1.11	1.02	1.23	1.02	1.33	1.37	1.89	1.09	1.09	1.05	0.939	0.874	0.86
LXF-289	1.03	1.01	1.04	1.03	1.02	0.998	0.958	0.984	0.979	0.98	0.908	1.02	0.963	1.07	1.03	1.04	1.03	1.08
PC-3 [JPC-3]	1.08	1.04	0.986	1.01	1.04	1.07	1.03	1.16	1.03	0.808	0.909	0.908	0.818	1.06	1.01	1.01	1.06	1.03
NCI-H661	1.02	0.992	1.02	1.01	0.972	0.987	0.998	1.04	1.01	0.84	0.931	0.81	0.849	0.693	0.628	0.601	0.588	0.657
NCI-H1666	0.971	0.98	1.04	0.937	0.965	1.04	0.854	0.96	1.01	0.808	0.802	1	0.949	1.21	1.07	1.11	1.02	0.774
NCI-H2087	0.947	1.07	1.09	1.04	0.974	1.09	1.06	1.25	1.07	0.785	0.825	1.04	0.75	1.03	1.14	1.02	1.25	0.829
NCI-H1734	0.971	1.02	1.15	1	0.979	0.991	0.886	1.14	0.926	1.01	0.843	1.12	0.915	0.624	0.728	0.684	0.663	0.704
NCI-H2228	1.07	1.04	1.27	0.851	1.02	0.798	0.967	1.56	1.09	1.07	1.11	1.31	1.11	0.656	0.866	0.806	0.698	0.631
EMC-BAC-2	0.982	0.933	0.986	0.804	1.01	1.03	0.894	1.05	0.822	1.04	0.968	1.15	0.929	0.658	0.771	0.897	0.747	0.826
NCI-H2009	0.975	1.04	0.96	0.925	0.734	1.11	1.05	1.04	0.927	1.26	1.03	1.16	0.88	1.11	1.15	1.21	1.07	1.01
NCI-H596	1.09	0.982	1.03	0.862	1.12	0.956	0.953	1.07	1.12	1.19	1.11	1.01	1.04	0.435	0.47	0.551	0.477	0.491
NCI-H650	0.944	1	0.98	0.887	0.895	1.08	1.03	1.11	0.837	0.907	0.87	0.918	0.553	1.03	1.2	1.28	1.07	1.02
NCI-H1792	1.14	1.21	0.805	0.811	0.928	0.987	0.779	1.19	0.962	0.983	0.957	0.983	1.07	0.715	0.788	0.906	0.708	0.703
